Test results from the NIST ThermoML archive (doi:10.1021/je300102d).

Assay: xn = mol fraction of the nth substance listed
Settings: 101 kPa, Liquid; for viscosity: Concentric cylinders viscometry; for mass density: Vibrating tube method

N [ammonia] + O
Settings | mass density, x1 = 0.0268 [kg/m3] | mass density, x1 = 0.0505 [kg/m3] | mass density, x1 = 0.1124 [kg/m3] | mass density, x1 = 0.148 [kg/m3] | mass density, x1 = 0.3043 [kg/m3] | viscosity, x1 = 0.0111 [mPa·s] | viscosity, x1 = 0.0262 [mPa·s] | viscosity, x1 = 0.0279 [mPa·s] | viscosity, x1 = 0.1147 [mPa·s] | viscosity, x1 = 0.176 [mPa·s]
283.15 K | 988.73 | 979.82 | 957.85 | 944.97 | 895.9 | 1.313 | 1.428 | 1.352 | 1.559 | 1.713
293.15 K | 986.79 | 977.5 | 954.52 | 941.01 | 889.82 | 1.025 | 1.074 | 1.046 | 1.157 | 1.289
303.15 K | 983.98 | 974.43 | 950.65 | 936.67 | – | 0.8106 | 0.845 | 0.8278 | 0.9025 | 0.9955
313.15 K | 980.32 | 970.59 | 946.14 | 931.7 | – | 0.672 | 0.7124 | 0.6922 | 0.7653 | 0.8467
323.15 K | 975.98 | 966.09 | 940.98 | 926.12 | – | 0.5645 | 0.5945 | 0.5795 | 0.6297 | 0.6829

O [water] + C1CNCCN1
x2 = 0
Settings | mass density [kg/m3] | viscosity [mPa·s]
283.15 K | 999.7 | 1.307
293.15 K | – | 1.002
303.15 K | – | 0.7977
313.15 K | – | 0.6532
323.15 K | 988.04 | 0.547

C1CNCCN1 [piperazine] + O
Settings | mass density, x1 = 0.00181 [kg/m3] | mass density, x1 = 0.00367 [kg/m3] | mass density, x1 = 0.00741 [kg/m3] | mass density, x1 = 0.01119 [kg/m3] | mass density, x1 = 0.01938 [kg/m3] | viscosity, x1 = 0.000906 [mPa·s] | viscosity, x1 = 0.00182 [mPa·s] | viscosity, x1 = 0.00366 [mPa·s] | viscosity, x1 = 0.00553 [mPa·s] | viscosity, x1 = 0.00742 [mPa·s]
283.15 K | 1000.15 | 1000.51 | 1001.34 | 1002.24 | 1004.7 | 1.33 | 1.362 | 1.393 | 1.462 | 1.533
293.15 K | 998.63 | 998.98 | 999.75 | 1000.58 | 1002.52 | 1.012 | 1.043 | 1.092 | 1.119 | 1.174
303.15 K | 996.1 | 996.42 | 997.15 | 997.91 | 999.69 | 0.8241 | 0.8339 | 0.8791 | 0.8894 | 0.9414
313.15 K | 992.66 | 992.99 | 993.68 | 994.37 | 996.04 | 0.6757 | 0.6868 | 0.7176 | 0.7531 | 0.78
323.15 K | 988.51 | 988.81 | 989.47 | 990.14 | 991.64 | 0.5816 | 0.5923 | 0.621 | 0.6448 | 0.6604

O [water] + N
x2 = 0
Settings | mass density [kg/m3] | viscosity [mPa·s]
283.15 K | 999.7 | 1.307
293.15 K | – | 1.002
303.15 K | – | 0.7977
313.15 K | – | 0.6532
323.15 K | 988.04 | 0.547
